Patent US5990142A, “Benzopyran derivatives having leukotriene-antagonistic action” (Laboratorios Menarini S.A., priority 1996, dated 1999)

molecular target: T1, LTD4 receptor (Cavia porcellus, UniProt Q2NNR5); experiment: [^3 H]-LTD4 Receptor Binding Inhibition Test in Guinea-pig Lung Membranes; details: 0.5 nM [^3 H]-LTD4, 30 min at 25° C., pH 7.4, Cheng-Prusoff
T1 construct: Guinea pig lung membranes, containing the LTD4 receptors, are purified; from tissue; host or cells: guinea-pig lung membranes
T1 sequence (Q2NNR5 1-340): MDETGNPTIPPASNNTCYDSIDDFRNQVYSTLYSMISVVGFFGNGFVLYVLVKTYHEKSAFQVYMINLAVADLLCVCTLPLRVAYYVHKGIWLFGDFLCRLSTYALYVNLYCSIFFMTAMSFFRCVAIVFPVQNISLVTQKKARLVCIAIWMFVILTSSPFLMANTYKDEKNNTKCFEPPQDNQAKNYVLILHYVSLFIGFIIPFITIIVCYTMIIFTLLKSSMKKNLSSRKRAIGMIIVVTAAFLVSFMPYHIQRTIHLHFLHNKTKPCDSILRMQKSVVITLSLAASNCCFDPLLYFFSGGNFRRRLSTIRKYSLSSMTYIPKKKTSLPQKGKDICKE
Method: The antagonistic activity on LTD4 of the compounds of the present invention is determined by means of an inhibition test of the [^3 H]-LTD4 receptor binding in guinea-pig lung membranes.
[^3 H]-LTD4 Receptor Binding Inhibition Test in Guinea-pig Lung Membranes
Guinea pig lung membranes, containing the LTD4 receptors, are purified following the method described by Mong and col. (Mong et al., Prostaglandins, 1984, 28. 805). These purified membranes (150 μg/ml) are added to an incubation mixture containing 10 mM of PIPES buffer (piperazine-N,N'-bis(2-ethanesulfonic acid) (pH 7.4), 10 mM CaCl2, 10 mM MgCl2, 2 mM cysteine, 2 mM glycine, 0.5 nM [^3 H]-LTD4 (4700-6400 GBq/mmol) and different concentrations of the product under test in a final volume of 310 μl. The reaction mixture is incubated for 30 minutes at 25° C.
The radioligand bound to the membranes is separated from the free one by dilution with 4 ml washing buffer (10 mM Tris-HCl (pH 7.4) and 100 mM NaCl) at 0° C. and filtration with Whatman GF/B filters, by means of a Brandel Cell Harvester. The filters are washed 4 times with a total volume of 16 ml of washing buffer at 0° C. The radioactivity present in the filters is determined by liquid scintillation.
The specific binding is defined as the difference between the total binding of [^3 H]-LTD4 and the non-specific binding determined in the presence of 1 μM LTD4. The data obtained in the competition tests are analyzed by a computational program, which determines the inhibition constant of each compound (Ki) by means of the Cheng-Prusoff equation (Cheng et al., Biochem. Pharmacol., 1973, 22, 3094).
wherein IC50 is the concentration of compound which displaces a 50% of the bound radioligand, [L] is the concentration of [^3 H]LTD4 free in the test and Kd is the dissociation constant of the LTD4 obtained in an independent way by means of Scatchard analysis.

| Compound | Ki |
| --- | --- |
| O=C(Nc1cccc2c(=O)cc(-c3nnn[nH]3)oc12)c1ccc2c(c1)CCC(CCCc1ccccc1)O2 (centres unmarked) [Example 4, N-[4-Oxo-2-(1H-5-tetrazolyl)-4H-1-benzopyran-8-yl]-2-(3-phenylpropyl)chromane-6-carboxamide] | 2.3 ± 0.2 nM |
| O=C(Nc1cccc2c(=O)cc(-c3nnn[nH]3)oc12)c1ccc2c(c1)CC(CCCc1ccccc1)O2 (centres unmarked) [Example 9, N-[4-Oxo-2-(1H-5-tetrazolyl)-4H-1-benzopyran-8-yl]-2-(3-phenylpropyl)-2,3-dihydrobenzofuran-5-carboxamide] | 1.1 ± 0.2 nM |
| O=C(Nc1cccc2c(=O)cc(-c3nnn[nH]3)oc12)c1ccc2c(c1)CC(COCc1ccc(F)cc1)O2 (centres unmarked) [Example 12, N-[4-Oxo-2-(1H-5-tetrazolyl)-4H-1-benzopyran-8-yl]-2-(4'-fluorobenzyloxymethyl)-2,3-dihydrobenzofuran-5-carboxamide] | 0.39 ± 0.1 nM |
| O=C(Nc1cccc2c(=O)cc(C(=O)O)oc12)c1cc(Cl)c2c(c1)CC(CCCc1ccccc1)O2 (centres unmarked) [Example 13, 8-[7-chloro-2-(3-phenylpropyl)-2,3-dihydrobenzofuran-5-carboxamido]-4-oxo-4H-1-benzopyran-2-carboxylic acid] | 9.3 ± 3 nM |
| O=C(Nc1cc(F)cc2c(=O)cc(C(=O)O)oc12)c1ccc2c(c1)CC(CCCc1ccccc1)O2 (centres unmarked) [Example 14, 8-[2-(3-Phenylpropyl)-2,3-dihydrobenzofuran-5-carboxamido]-6-fluoro-4-oxo-4H-1-benzopyran-2-carboxylic acid] | 4.2 ± 1.1 nM |
| O=C(O)c1cc(=O)c2cccc(NC(=O)c3ccc4c(c3Cl)CC(CCCc3ccccc3)O4)c2o1 (centres unmarked) [Example 15, 8-[4-Chloro-2-(3-phenylpropyl)-2,3-dihydrobenzofuran-5-carboxamido]-4-oxo-4H-1-benzopyran-2-carboxylic acid] | 102 ± 48 nM |
| O=C(O)c1cc(=O)c2cccc(NC(=O)c3cc4c(cc3Cl)OC(CCCc3ccccc3)C4)c2o1 (centres unmarked) [Example 16, 8-[6-Chloro-2-(3-phenylpropyl)-2,3-dihydrobenzofuran-5-carboxamido]-4-oxo-4H-1-benzopyran-2-carboxylic acid] | 169 ± 24 nM |
| Cc1cn(CCCCc2ccccc2)c2ccc(C(=O)Nc3cccc4c(=O)cc(-c5nnn[nH]5)oc34)cc12 [Example 17, N-[4-Oxo-2-(1H-5-tetrazolyl)-4H-1-benzopyran-8-yl]-1-(4-phenylbutyl)-3-methylindole-5-carboxamide] | 1200 ± 440 nM |
| O=C(O)c1cc(=O)c2cccc(OCc3ccc(OCCCCc4ccccc4)cc3)c2o1 [Example 18, 8-[[4-(4-phenylbutoxy)phenyl]methyloxy]-4-oxo-4H-1-benzopyran-2-carboxylic acid] | 174 ± 43 nM |
| O=C(O)c1cc(=O)c2cccc(NS(=O)(=O)c3ccc(OCCCCc4ccccc4)cc3)c2o1 [Example 19, 8-[[4-(4-Phenylbutoxy)phenyl]sulfonylamino]-4-oxo-4H-1-benzopyran-2-carboxylic acid] | 6 ± 1 nM |
| O=C(O)c1cc(=O)c2cccc(/C=C/c3ccc(OCCCCc4ccccc4)cc3)c2o1 [Example 20, 4-oxo-8-[(E)-2-[4-(4-phenylbutoxy)phenyl]ethen-1-yl]-4H-1-benzopyran-2-carboxylic acid] | 6.2 ± 1.3 nM |
| O=c1cc(-c2nnn[nH]2)oc2c(/C=C/c3ccc(OCCCCc4ccccc4)cc3)cccc12 [Example 21, 8-[(E)-2-[4-(4-Phenylbutoxy)phenyl]ethen-1-yl]-4-oxo-2-(5-1H-tetrazolyl]-4H-1-benzopyran] | 0.5 ± 0.2 nM |
| O=C(O)c1cc(=O)c2cccc(/C=C/c3ccc(OCCCCc4ccc(F)cc4)cc3)c2o1 [Example 22, 8-[(E)-2-[4-[4-(4-Fluorophenyl)butoxy]phenyl]-ethen-1-yl]-4-oxo-4H-1-benzopyran-2-carboxylic acid] | 6 ± 3 nM |
| O=c1cc(-c2nnn[nH]2)oc2c(/C=C/c3ccc(OCCCCc4ccc(F)cc4)cc3)cccc12 [Example 23, 8-[(E)-2-[4-[4-(4-Fluorophenyl)butoxy]phenyl]ethen-1-yl]-4-oxo-2-(5-1H-tetrazolyl)-4H-1-benzopyran] | 0.39 ± 0.1 nM |
| O=C(O)c1cc(=O)c2cccc(/C=C/c3ccc(OCCCCc4ccccc4)cc3F)c2o1 [Example 24, 8-[(E)-2-[4-(4-Phenylbutoxy)-2-fluorophenyl]ethen-1-yl]-4-oxo-4H-1-benzopyran-2-carboxylic acid] | 22.3 ± 0.1 nM |
| O=C(O)c1cc(=O)c2cccc(/C=C/c3ccc4c(c3)CC(COCc3ccc(F)cc3)O4)c2o1 (centres unmarked) [Example 25, 8-[(E)-2-[2-(4'-Fluorobenzyloxymethyl)-2,3-dihydrobenzofuran-5-yl]ethen-1-yl]-4-oxo-4H-1-benzopyran-2-carboxylic acid] | 1.25 ± 0.3 nM |
| O=c1cc(-c2nnn[nH]2)oc2c(/C=C/c3ccc4c(c3)CC(COCc3ccc(F)cc3)O4)cccc12 (centres unmarked) [Example 26, 8-[(E)-2-[2-(4'-fluorobenzyloxymethyl)-2,3-dihydrobenzofuran-5-yl]ethen-1-yl]-4-oxo-2-(5-1H-tetrazolyl)-4H-1-benzopyran] | 0.46 ± 0.1 nM |

The remaining lines, values ahead:

| Ki | Compound |
| --- | --- |
| 145 ± 34 nM | O=C(Nc1cccc2c(=O)cc(C(=O)O)oc12)c1ccc2c(c1)CCC(COCc1ccccc1)O2 (centres unmarked) [Example 1, 8-[2-(Benzyloxymethyl)chromane-6-carboxamido]-4-oxo-4H-1-benzopyran-2-carboxylic acid] |
| 12 ± 4 nM | O=C(Nc1cccc2c(=O)cc(-c3nnn[nH]3)oc12)c1ccc2c(c1)CCC(COCc1ccccc1)O2 (centres unmarked) [Example 2, N-[4-Oxo-2-(1H-5-tetrazolyl)-4H-1-benzopyran-8-yl]-2-(benzyloxymethyl)chromane-6-carboxamide] |
| 5.6 ± 0.5 nM | O=C(Nc1cccc2c(=O)cc(C(=O)O)oc12)c1ccc2c(c1)CCC(CCCc1ccccc1)O2 (centres unmarked) [Example 3, 8-[2-(3-Phenylpropyl)chromane-6-carboxamido]-4-oxo-4H-1-benzopyran-2-carboxylic acid] |
| 24 ± 3 nM | O=C(Nc1cccc2c(=O)cc(C(=O)O)oc12)c1ccc2oc(COCc3ccccc3)cc2c1 [Example 5, 8-[2-(Benzyloxymethyl)benzofuran-5-carboxamido]-4-oxo-4H-1-benzopyran-2-carboxylic acid] |
| 6 ± 2.1 nM | O=C(Nc1cccc2c(=O)cc(C(=O)O)oc12)c1ccc2c(c1)CC(COCc1ccccc1)O2 (centres unmarked) [Example 6, 8-(2-Benzyloxymethyl-2,3-dihydrobenzofuran-5-carboxamido)-4-oxo-4H-1-benzopyran-2-carboxylic acid] |
| 1.88 ± 0.2 nM | O=C(Nc1cccc2c(=O)cc(-c3nnn[nH]3)oc12)c1ccc2c(c1)CC(COCc1ccccc1)O2 (centres unmarked) [Example 7, N-[4-Oxo-2-(1H-5-tetrazolyl)-4H-1-benzopyran-8-yl]-2-benzyloxymethyl-2,3-dihydrobenzofuran-5-carboxamide] |
| 1.73 ± 0.2 nM | O=C(Nc1cccc2c(=O)cc(C(=O)O)oc12)c1ccc2c(c1)CC(CCCc1ccccc1)O2 (centres unmarked) [Example 8, 8-[2-(3-Phenylpropyl)-2,3-dihydrobenzofuran-5-carboxamido]-4-oxo-4H-1-benzopyran-2-carboxylic acid] |
| 9 ± 0.8 nM | O=C(Nc1cccc2c(=O)cc(C(=O)O)oc12)c1ccc2c(c1)CC(CSCc1ccccc1)O2 (centres unmarked) [Example 10, 8-(2-Benzylthiomethyl-2,3-dihydrobenzofuran-5-carboxamido)-4-oxo-4H-1-benzopyran-2-carboxylic acid] |
| 1.9 ± 0.04 nM | O=C(Nc1cccc2c(=O)cc(C(=O)O)oc12)c1ccc2c(c1)CC(COCc1ccc(F)cc1)O2 (centres unmarked) [Example 11, 8-[2-(4'-Fluorobenzyloxymethyl)-2,3-dihydrobenzofuran-5-carboxamido]-4-oxo-4H-1-benzopyran-2-carboxylic acid] |
